Assay results published in US11834450B2, “Compounds having ((3-nitrophenyl)sulfonyl)acetamide as BCL-2 inhibitors” (Eil Therapeutics, Inc., priority 2021, dated 2023).
Where two headings read alike, the source gives them in different places.

Key:
BCL-2 = molecular target: T1, BCL-2 (Homo sapiens, UniProt P10415); test: BCL-2 TR-FRET Assay (primary PPI inhibition); type: binding; conditions: 60 min incubation; read-out: BCL2 (IC50 code, BCL-2 TR-FRET)
T1 construct: purchased BPS Bioscience #50222

BCL-XL = molecular target: T2, BCL-XL (Homo sapiens, UniProt Q07817); test: BCL-XL TR-FRET Assay (primary PPI inhibition); type: binding; conditions: 60 min incubation; read-out: BCLxL (IC50 code, BCL-XL TR-FRET)
T2 construct: purchased BPS Bioscience #50223
In short: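 10.5 ng His-tagged BCL-XL incubated 60 min with test compound, BCL-XL peptide ligand (1:80), Tb-labelled anti-His donor and dye-labelled acceptor (each 1:100). Displacement read as TR-FRET, excitation 340 nm, emission 620 and 665 nm, 60 μs delay, 500 μs integration.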

RS4-11 cells = test: Cell viability assay RS4-11 (CellTiter-Glo); type: cell-based; conditions: Homo sapiens, read-out: RS4-11 (CC50 code)
In short: (§1)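 Cells were seeded at 2000/well (HEK293, in DMEM, pre-incubated a day) or 4000/well (other lines, in RPMI-1640). Serially diluted compound was added and plates incubated 3 days at 37 °C, with viability read by CellTiter-Glo luminescence.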

MOLT-4 cells = test: Cell viability assay MOLT-4 (CellTiter-Glo); type: cell-based; conditions: Homo sapiens, read-out: MOLT-4 (CC50 code)
In short: as §1

[1] = Cell viability assay HEK293 (CellTiter-Glo); type: cell-based; conditions: human, HEK293 cells, read-out: HEK293 (CC50 code)
In short: as §1

[2] = system: caspase-3 and -7 activities in RS4-11 cells; test: Cas-3/7 activation (Caspase-Glo 3/7) in RS4-11 cells; type: cell-based; conditions: Homo sapiens, 3.5 h at 37° C. and 30 min at r.t., read-out: Cas-3/7 (EC50 code)
In short: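 RS4-11 cells were exposed to graded compound concentrations for 3.5 h at 37° C/5% CO2, then 30 min at room temperature. Caspase-3/7 activity was measured by luminescence after 30 min with a DEVD luminogenic substrate reagent.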

[3] = 72 h, RS4-11 cells, 3 days, CellTiter-Glo
[4] = 72 h, MOLT-4 cells, 3 days, CellTiter-Glo

T2 sequence (Q07817 whole entry): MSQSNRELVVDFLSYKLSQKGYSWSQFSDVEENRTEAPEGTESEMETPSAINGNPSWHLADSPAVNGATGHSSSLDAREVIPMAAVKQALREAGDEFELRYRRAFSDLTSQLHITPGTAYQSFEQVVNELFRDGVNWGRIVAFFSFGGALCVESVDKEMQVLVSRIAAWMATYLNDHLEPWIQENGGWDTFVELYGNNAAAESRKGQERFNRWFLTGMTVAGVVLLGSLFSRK
T1 sequence (P10415 whole entry): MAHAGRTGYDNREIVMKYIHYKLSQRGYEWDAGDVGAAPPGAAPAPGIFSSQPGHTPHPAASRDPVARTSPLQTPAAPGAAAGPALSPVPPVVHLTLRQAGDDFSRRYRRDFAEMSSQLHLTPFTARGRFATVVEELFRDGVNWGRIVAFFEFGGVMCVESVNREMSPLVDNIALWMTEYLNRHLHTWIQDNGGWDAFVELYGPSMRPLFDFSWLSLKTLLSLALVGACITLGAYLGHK

| SMILES | IC50 (BCL-2) [nM] | IC50 (BCL-XL) [nM] | EC50 [2] [nM] | CC50 (RS4-11 cells; [3]) [nM] | CC50 (MOLT-4 cells; [4]) [nM] | CC50 at 3 days [1] [nM] | CC50 (RS4-11 cells; RS4-11, 72 h) [nM] | CC50 (MOLT-4 cells; MOLT-4, 72 h) [nM] |
| --- | --- | --- | --- | --- | --- | --- | --- | --- |
| CC(C)C(=O)N1Cc2ccccc2C[C@H]1CN1CCN(c2ccc(C(=O)NS(=O)(=O)c3ccc(NCC4CCOCC4)c([N+](=O)[O-])c3)c(Oc3cnc4[nH]ccc4c3)c2)CC1 [Compound 8, 4-[4-[[2-(2-methylpropanoyl)-3,4-dihydro-1H-isoquinolin-3-yl]methyl]piperazin-1-yl]-N-[3-nitro-4-(tetrahydropyran-4-ylmethylamino)phenyl]sulfonyl-2-(1H-pyrrolo[2,3-b]pyridin-5-yloxy)benzamide] | > 50 | ≤ 2000 | > 250 | > 200 | 2000 to 10000 | > 25000 | – | – |
| O=C(NS(=O)(=O)c1ccc(NCC2CCOCC2)c([N+](=O)[O-])c1)c1ccc(N2CCN(C[C@@H]3Cc4ccccc4CN3C(=O)C3CC3)CC2)cc1Oc1cnc2[nH]ccc2c1 [Compound 5, 4-[4-[[(3S)-2-(cyclopropanecarbonyl)-3,4-dihydro-1H-isoquinolin-3-yl]methyl]piperazin-1-yl]-N-[3-nitro-4-(tetrahydropyran-4-ylmethylamino)phenyl]sulfonyl-2-(1H-pyrrolo[2,3-b]pyridin-5-yloxy)benzamide] | 10 to 50 | ≤ 2000 | > 250 | > 200 | 2000 to 10000 | > 25000 | – | – |
| O=C(NS(=O)(=O)c1ccc(NCC2CCOCC2)c([N+](=O)[O-])c1)c1ccc(N2CCC(CN3C(=O)C4(CCNCC4)C3c3ccc(Cl)cc3)CC2)cc1Oc1cnc2[nH]ccc2c1 (stereo not drawn) [Compound 56, 4-[4-[[1-(4-chlorophenyl)-3-oxo-2,7-diazaspiro[3.5]nonan-2-yl]methyl]-1-piperidyl]-N-[3-nitro-4-(tetrahydropyran-4-ylmethylamino)phenyl]sulfonyl-2-(1H-pyrrolo[2,3-b]pyridin-5-yloxy)benzamide] | 10 to 50 | 2000 to 4000 | > 250 | > 200 | > 10000 | > 25000 | – | – |
| O=C(NS(=O)(=O)c1ccc(NCC2CCOCC2)c([N+](=O)[O-])c1)c1ccc(N2CCN(C[C@H]3Cc4ccccc4CN3C(=O)C3CC3)CC2)cc1Oc1cnc2[nH]ccc2c1 [Compound 33, 4-[4-[[(3R)-2-(cyclopropanecarbonyl)-3,4-dihydro-1H-isoquinolin-3-yl]methyl]piperazin-1-yl]-N-[3-nitro-4-(tetrahydropyran-4-ylmethylamino)phenyl]sulfonyl-2-(1H-pyrrolo[2,3-b]pyridin-5-yloxy)benzamide] | 10 to 50 | > 4000 | > 250 | > 200 | 2000 to 10000 | > 25000 | – | – |
| CC(C)C(=O)N1Cc2ccc(F)cc2C[C@H]1CN1CCN(c2ccc(C(=O)NS(=O)(=O)c3ccc(NCC4CCOCC4)c([N+](=O)[O-])c3)c(Oc3cnc4[nH]ccc4c3)c2)CC1 [Compound 45, 4-[4-[[(3S)-6-fluoro-2-(2-methylpropanoyl)-3,4-dihydro-1H-isoquinolin-3-yl]methyl]piperazin-1-yl]-N-[3-nitro-4-(tetrahydropyran-4-ylmethylamino)phenyl]sulfonyl-2-(1H-pyrrolo[2,3-b]pyridin-5-yloxy)benzamide] | > 50 | > 4000 | > 250 | > 200 | > 10000 | > 25000 | – | – |
| O=C(NS(=O)(=O)c1ccc(NCC2CCOCC2)c([N+](=O)[O-])c1)c1ccc(N2CCC(CN3C(=O)C4(CCCC4)C3c3cncc(Cl)c3)CC2)cc1Oc1cnc2[nH]ccc2c1 (stereo not drawn) [Compound 9, 4-[4-[[1-(5-chloro-3-pyridyl)-3-oxo-2-azaspiro[3.4]octan-2-yl]methyl]-1-piperidyl]-N-[3-nitro-4-(tetrahydropyran-4-ylmethylamino)phenyl]sulfonyl-2-(1H-pyrrolo[2,3-b]pyridin-5-yloxy)benzamide] | > 50 | 2000 to 4000 | > 250 | – | – | > 25000 | > 200 | 2000 to 10000 |
| CC1=CC[C@@H]2C[C@H]1[C@H](c1ccc(Cl)cc1)N(CC1CCN(c3ccc(C(=O)NS(=O)(=O)c4ccc(NCC5CCOCC5)c([N+](=O)[O-])c4)c(Oc4cnc5[nH]ccc5c4)c3)CC1)C2 [Compound 55, 4-[4-[[(1R,4R, 5R)-4-(4-chlorophenyl)-6-methyl-3-azabicyclo[3.3.1]non-6-en-3-yl]methyl]-1-piperidyl]-N-[3-nitro-4-(tetrahydropyran-4-ylmethylamino)phenyl]sulfonyl-2-(1H-pyrrolo[2,3-b]pyridin-5-yloxy)benzamide] | > 50 | > 4000 | > 250 | > 200 | 2000 to 10000 | > 25000 | – | – |
| O=C(NS(=O)(=O)c1ccc(NCC2CCOCC2)c([N+](=O)[O-])c1)c1ccc(N2CCN(C[C@@H]3Cc4ccccc4CN3C(=O)C3CCNC3)CC2)cc1Oc1cnc2[nH]ccc2c1 (stereo partly drawn) [Compound 78, N-[3-nitro-4-(tetrahydropyran-4-ylmethylamino)phenyl]sulfonyl-4-[4-[[(3S)-2-(pyrrolidine-3-carbonyl)-3,4-dihydro-1H-isoquinolin-3-yl]methyl]piperazin-1-yl]-2-(1H-pyrrolo[2,3-b]pyridin-5-yloxy)benzamide] | 5 to 10 | 2000 to 4000 | > 250 | > 200 | > 10000 | > 25000 | – | – |

Further lines, with some results ahead:

| IC50 (BCL-2) [nM] | IC50 (BCL-XL) [nM] | EC50 [2] [nM] | SMILES | CC50 (RS4-11 cells; [3]) [nM] | CC50 (MOLT-4 cells; [4]) [nM] | CC50 at 3 days [1] [nM] | CC50 (RS4-11 cells; RS4-11, 72 h) [nM] | CC50 (MOLT-4 cells; MOLT-4, 72 h) [nM] |
| --- | --- | --- | --- | --- | --- | --- | --- | --- |
| 10 to 50 | 2000 to 4000 | > 250 | O=C(NS(=O)(=O)c1ccc(NCC2CCOCC2)c([N+](=O)[O-])c1)c1ccc(N2CCN(C[C@H]3Cc4ccccc4CN3C(=O)c3ccsc3)CC2)cc1Oc1cnc2[nH]ccc2c1 [Compound 59, N-[3-nitro-4-(tetrahydropyran-4-ylmethylamino)phenyl]sulfonyl-2-(1H-pyrrolo[2,3-b]pyridin-5-yloxy)-4-[4-[[(3R)-2-(thiophene-3-carbonyl)-3,4-dihydro-1H-isoquinolin-3-yl]methyl]piperazin-1-yl]benzamide] | > 200 | 2000 to 10000 | > 25000 | – | – |
| > 50 | > 4000 | > 250 | O=C(NS(=O)(=O)c1ccc(NCC2CCOCC2)c([N+](=O)[O-])c1)c1ccc(N2CCN(C[C@@H]3Cc4ccccc4CN3C(=O)c3ccc(Cl)s3)CC2)cc1Oc1cnc2[nH]ccc2c1 [Compound 35, 4-[4-[[(3S)-2-(5-chlorothiophene-2-carbonyl)-3,4-dihydro-1H-isoquinolin-3-yl]methyl]piperazin-1-yl]-N-[3-nitro-4-(tetrahydropyran-4-ylmethylamino)phenyl]sulfonyl-2-(1H-pyrrolo[2,3-b]pyridin-5-yloxy)benzamide] | > 200 | 2000 to 10000 | > 25000 | – | – |
| 10 to 50 | > 4000 | > 250 | O=C(NS(=O)(=O)c1ccc(NCC2CCOCC2)c([N+](=O)[O-])c1)c1ccc(N2CCC(Cn3c(-c4ccc(Cl)cc4)nc4cccnc43)CC2)cc1Oc1cnc2[nH]ccc2c1 [Compound 51, 4-[4-[[2-(4-chlorophenyl)imidazo[4,5-b]pyridin-3-yl]methyl]-1-piperidyl]-N-[3-nitro-4-(tetrahydropyran-4-ylmethylamino)phenyl]sulfonyl-2-(1H-pyrrolo[2,3-b]pyridin-5-yloxy)benzamide] | > 200 | 2000 to 10000 | > 25000 | – | – |
| 10 to 50 | > 4000 | > 250 | O=C(NS(=O)(=O)c1ccc(NCC2CCOCC2)c([N+](=O)[O-])c1)c1ccc(N2CCN(C[C@@H]3Cc4cc(F)ccc4CN3C(=O)C3CC3)CC2)cc1Oc1cnc2[nH]ccc2c1 [Compound 49, 4-[4-[[(3S)-2-(cyclopropanecarbonyl)-6-fluoro-3,4-dihydro-1H-isoquinolin-3-yl]methyl]piperazin-1-yl]-N-[3-nitro-4-(tetrahydropyran-4-ylmethylamino)phenyl]sulfonyl-2-(1H-pyrrolo[2,3-b]pyridin-5-yloxy)benzamide] | > 200 | 2000 to 10000 | > 25000 | – | – |
| > 50 | ≤ 2000 | > 250 | O=C(NS(=O)(=O)c1ccc(NCC2CCOCC2)c([N+](=O)[O-])c1)c1ccc(N2CCN(CC3Cc4ccccc4CN3C(=O)c3cccs3)CC2)cc1Oc1cnc2[nH]ccc2c1 (stereo not drawn) [Compound 6, N-[3-nitro-4-(tetrahydropyran-4-ylmethylamino)phenyl]sulfonyl-2-(1H-pyrrolo[2,3-b]pyridin-5-yloxy)-4-[4-[[2-(thiophene-2-carbonyl)-3,4-dihydro-1H-isoquinolin-3-yl]methyl]piperazin-1-yl]benzamide] | > 200 | 2000 to 10000 | > 25000 | – | – |
